Positions count from the first letter of the chain named. Entries after “also recorded” stand apart in the source; their conditions may differ. No end group written: not given here.
What was measured:
[1] = tested on: α-COP D229A E273A mutant (α1-327); assay: ITC with α1-327 D229A E273A mutant; type: binding, yeast; details: 10°C, 300 mM NaCl
Description: (§1) ITC experiments were conducted on a Microcal VP-ITC machine (GE Healthcare) at 10°C. Molar peptide concentration in the syringe was ten times that of protein in the cell. β'-COP constructs were gel filtered into 50 mM HEPES (pH 7.4) and 100 mM NaCl, and α-COP constructs were gel filtered into 50 mM HEPES (pH 7.4) and 300 mM NaCl prior to runs. Titration data were analyzed in ORIGIN to obtain values for stoichiometry (N), equilibrium association constant (Ka), and enthalpy of binding. All experiments were carried out at least three times with appropriate standard deviations reported.
(§2) Figure S3, related to Figure 2. Model and in vitro data of α-COP 1-327 binding to a KKxx
(§3) motif. A homology model of residues 1-327 of yeast α-COP binding to the KKTN motif from
(§4) (1 picture or pasted object on this page, not shown here)
(§5) Homology model of the α-COP N-terminal propeller
(§6) Isothermal titration calorimetry

[2] = tested on: α-COP R13A K15S R57S mutant (α1-327); assay: ITC with α1-327 R13A K15S R57S mutant; type: binding, yeast; details: 10°C, 300 mM NaCl
Description: as §1, §2, §3, §4, §5, §6

[3] = tested on: α-COP D96A D115A mutant (α1-327); assay: ITC with α1-327 D96A D115A mutant; type: binding, yeast; details: 10°C, 300 mM NaCl
Description: as §1, §2, §3, §4, §5, §6

[4] = target: T1, yeast β'-COP 1-304 (N-terminal WD-repeat domain), wild-type (Saccharomyces cerevisiae, UniProt P41811); assay: ITC of dilysine motif peptides with wild-type β'1-304; type: binding; details: for binding by ITC (in words): 10°C, 50 mM HEPES pH 7.4, 100 mM NaCl, at least three runs
T1 construct: GST (thrombin-cleavable) (C, cleaved yes); made in house; host or cells: E. coli BL21(DE3)pLysS
T1 sequence (P41811 1-304): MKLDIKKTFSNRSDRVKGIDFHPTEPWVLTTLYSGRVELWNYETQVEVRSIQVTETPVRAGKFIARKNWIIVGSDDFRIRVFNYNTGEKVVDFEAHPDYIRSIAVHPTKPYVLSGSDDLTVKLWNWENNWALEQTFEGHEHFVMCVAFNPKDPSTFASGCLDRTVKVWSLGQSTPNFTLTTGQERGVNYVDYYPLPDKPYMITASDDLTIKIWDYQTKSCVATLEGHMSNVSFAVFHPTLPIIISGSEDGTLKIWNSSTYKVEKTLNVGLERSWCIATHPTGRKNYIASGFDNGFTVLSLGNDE
Description: as §6
equilibrium association constant (Ka), and enthalpy of binding. All experiments were carried out
100 mM NaCl to mimic physiological salt conditions. Wild type yeast α-COP (α1-327) was gel
Immediately prior to a run, the protein was
mM NaCl than at 100 mM NaCl.
and ultraviolet absorbance (Agilent 1200 UV, Agilent Technologies). Samples of β’1-304 or 1-
the construct lacks the α-solenoid domain. […]

[5] = target: β'-COP D98A D117A mutant (β'1-304) (Saccharomyces cerevisiae, UniProt P41811, D117A/D98A); assay: biochemical
Description: (§7) The β'-COP R15A K17A R59A mutant was designed to disrupt binding to the carboxy terminus of the motif, and the D206A E248A mutant was intended to disrupt binding to the -3 lysine.
as §1, §5, §6

[6] = target: β'-COP R15A K17A R59A mutant (β'1-304) (Saccharomyces cerevisiae, UniProt P41811, K17A/R15A/R59A); assay: biochemical
Description: as §7, §1, §5, §6

[7] = target: β'-COP D206A E248A mutant (β'1-304) (Saccharomyces cerevisiae, UniProt P41811, D206A/E248A); assay: biochemical
Description: as §7, §1, §5, §6

[8] = target: T2, yeast β'-COP 1-304 (N-terminal WD-repeat domain), untagged (yeast (S. cerevisiae), UniProt P41811 1-304); assay: ITC; Microcal VP-ITC, 10°C; peptide in the syringe, protein in the cell; 50 mM Hepes pH 7.4, 100 mM NaCl; details: both partners purified
T2 construct: source: E. coli BL21(DE3)pLysS, purified (glutathione sepharose, thrombin cleavage, S200 gel filtration); not shown: GST, C-terminal, cleaved
T2 sequence (looked up): T1 sequence (P41811 1-304)

[9] = target: T3, yeast β'-COP 1-304 D206A E248A (yeast (S. cerevisiae), UniProt P41811 1-304, D206A | E248A); assay: ITC; Microcal VP-ITC, 10°C; peptide in the syringe at ten times the molar concentration of the β'-COP construct in the cell; 50 mM HEPES (pH 7.4), 100 mM NaCl; details: both partners purified
T3 construct: constructs are in the Supplemental Experimental Procedures; also called D206A E248A mutant
T3 sequence (looked up): T1 sequence (P41811 1-304) with D206A, E248A

[10] = target: T4, yeast β'-COP 1-304 (N-terminal WD-repeat domain), untagged, wild type (yeast (S. cerevisiae), UniProt P41811 1-304); assay: as above; details: both partners purified
T4 construct: also called β'-COP N-terminal WD-repeat domain
T4 sequence (looked up): T1 sequence (P41811 1-304)

[11] = target: T5, yeast β'-COP 1-304 D98A D117A (yeast (S. cerevisiae), UniProt P41811 1-304, D98A | D117A); assay: as above; details: both partners purified
T5 construct: constructs are in the Supplemental Experimental Procedures; also called D98A D117A mutant
T5 sequence (looked up): T1 sequence (P41811 1-304) with D98A, D117A

[12] = target: T6, yeast β'-COP 1-304 R15A K17A R59A (yeast (S. cerevisiae), UniProt P41811 1-304, R15A | K17A | R59A); assay: as above; details: both partners purified
T6 construct: constructs are in the Supplemental Experimental Procedures; also called β'-COP R15A K17A R59A mutant
T6 sequence (looked up): T1 sequence (P41811 1-304) with R15A, K17A, R59A

[13] = target: T4, yeast β'-COP 1-304 (N-terminal …); assay: crystal structure; β'1-304 (untagged) with CTFKKTN; details in the Supplemental Experimental Procedures; details: both partners purified
[14] = target: T7, yeast α-COP 1-327 (N-terminal WD-repeat domain), wild type (yeast (S. cerevisiae), UniProt P53622 1-327); assay: ITC; Microcal VP-ITC, 10°C, 35 injections of 8 µL; peptide in the syringe at ten times the molar concentration of the protein in the cell; α-COP desalted into 20 mM Hepes pH 7.4, 300 mM NaCl (high salt required for stability); details: both partners purified
T7 construct: α-COP (Ret1), yeast, residues 1-327, N-terminal WD-repeat domain; also called α1-327; Wild type A327; source: E. coli BL21(DE3)pLysS, purified (glutathione sepharose, thrombin cleavage, S200 gel filtration); not shown: GST, C-terminal, cleaved
T7 sequence (looked up): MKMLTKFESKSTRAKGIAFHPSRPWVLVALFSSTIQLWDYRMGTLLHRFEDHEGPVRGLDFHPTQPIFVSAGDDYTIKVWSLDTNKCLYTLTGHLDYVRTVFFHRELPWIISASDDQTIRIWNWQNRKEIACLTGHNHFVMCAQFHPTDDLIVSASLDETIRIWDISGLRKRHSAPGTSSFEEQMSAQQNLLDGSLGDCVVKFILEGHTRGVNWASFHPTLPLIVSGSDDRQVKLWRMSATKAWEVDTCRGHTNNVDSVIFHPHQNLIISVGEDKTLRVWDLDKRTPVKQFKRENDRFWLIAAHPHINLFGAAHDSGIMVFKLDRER

[15] = target: T8, yeast β'-COP 1-604 (both WD-repeat domains) (yeast (S. cerevisiae), UniProt P41811 1-604); assay: crystal structure; β'1-604 (10 mg/ml) with CTFKTKTN (30 mg/ml, mixed 1:10); 0.1 M bicine (pH 9.0), 10% MPD; space group P3(1), twinned; details: both partners purified
T8 construct: constructs are in the Supplemental Experimental Procedures
T8 sequence (looked up): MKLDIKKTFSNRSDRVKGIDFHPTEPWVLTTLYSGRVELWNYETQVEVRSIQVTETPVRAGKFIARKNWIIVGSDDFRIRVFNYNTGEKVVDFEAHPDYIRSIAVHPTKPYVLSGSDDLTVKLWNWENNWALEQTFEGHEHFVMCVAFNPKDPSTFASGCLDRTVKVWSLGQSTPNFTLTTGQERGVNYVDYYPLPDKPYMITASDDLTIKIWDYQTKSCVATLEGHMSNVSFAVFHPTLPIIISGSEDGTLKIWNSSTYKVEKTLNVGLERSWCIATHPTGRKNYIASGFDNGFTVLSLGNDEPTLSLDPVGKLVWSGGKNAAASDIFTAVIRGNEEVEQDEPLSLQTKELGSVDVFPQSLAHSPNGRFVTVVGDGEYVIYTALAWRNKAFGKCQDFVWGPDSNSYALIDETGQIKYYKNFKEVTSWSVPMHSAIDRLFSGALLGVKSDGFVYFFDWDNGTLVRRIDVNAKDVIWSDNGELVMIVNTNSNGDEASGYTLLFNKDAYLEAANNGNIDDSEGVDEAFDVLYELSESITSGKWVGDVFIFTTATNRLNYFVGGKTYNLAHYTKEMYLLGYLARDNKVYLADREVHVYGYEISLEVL

[16] = target: T4, yeast β'-COP 1-304 (N-terminal …); assay: crystal structure; β'1-304 (10 mg/ml) with CTFKTKTN (30 mg/ml, mixed 1:10); 0.1 M HEPES (pH 7.5), 0.5 M ammonium sulfate, 30% v/v MPD; space group P6(1); details: both partners purified

Chain of β'-COP D98A D117A mutant (β'1-304) (P41811 1-304 D98A/D117A): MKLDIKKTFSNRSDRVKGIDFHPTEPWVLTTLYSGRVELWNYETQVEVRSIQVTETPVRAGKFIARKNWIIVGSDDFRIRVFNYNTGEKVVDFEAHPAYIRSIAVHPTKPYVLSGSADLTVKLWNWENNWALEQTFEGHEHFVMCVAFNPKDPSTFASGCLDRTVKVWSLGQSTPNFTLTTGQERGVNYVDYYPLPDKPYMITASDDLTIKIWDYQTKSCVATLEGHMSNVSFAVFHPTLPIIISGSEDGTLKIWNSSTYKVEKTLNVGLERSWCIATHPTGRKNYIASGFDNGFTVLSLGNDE
Chain of β'-COP D206A E248A mutant (β'1-304) (P41811 1-304 D206A/E248A): as the sequence (P41811 1-304 D98A/D117A) above, with A98D, A117D, D206A, E248A counted along it
Chain of β'-COP R15A K17A R59A mutant (β'1-304) (P41811 1-304 R15A/K17A/R59A): as the sequence (P41811 1-304 D98A/D117A) above, with R15A, K17A, R59A, A98D, A117D counted along it

CTFKKTN-OH [KKTN]
binding by ITC (in words) [1]: no measurable binding | binding by ITC (in words) [2]: no measurable binding | binding by ITC (in words) [3]: no measurable binding

KKLIE [KKLIE peptide from p23]
binding by ITC (in words) [4]: no measurable binding; also recorded: does not bind

KTKLL-CONH2 [amidated KTKLL peptide]
binding by ITC (in words) [4]: no measurable binding

KTSLL [KTKLL motif variant lacking the -3 lysine]
binding by ITC (in words) [4]: no measurable binding

RQEIIKTKLL [KTKLL]
Kd [5]: < 300 µM | Kd [6]: < 300 µM | Kd [7]: < 300 µM | measured KD at 300 mM NaCl relative to 100 mM NaCl ([4]; ITC control runs in 300 mM NaCl compared to 100 mM NaCl): four- to five-fold weaker

RRVV [RRVV peptide from p24]
binding by ITC (in words) [4]: no measurable binding

B1: yeast Emp47 C-terminal KxKxx peptide RQEIIKTKLL (peptide)
peptide: RQEIIKTKLL
notes: also called KTKLL motif
Kd [8]: 10 to 20 µM

B2: KxKxx motif peptide from wild-type yeast Emp47 (RQEIIKTKLL) (peptide)
peptide: RQEIIKTKLL
notes: also called KTKLL motif; source: peptide
Kd [9]: < 300 µM | Kd [10]: 6.8 µM | Kd [11]: < 300 µM | Kd [12]: < 300 µM

B3: CTFKKTN peptide (KKxx motif derived from yeast Wbp1), used in crystallization (peptide)
peptide: CTFKKTN
notes: KKxx motif derived from the C terminus of yeast Wbp1; The N-terminal cysteine may not be a residue of Wbp1 (surmise); also called CTFKKTN motif; source: peptide
binding result [13]: binds

B4: Wbp1 KKTN motif peptide used for ITC (peptide)
chain: CTFKKTN-OH
Kd [10]: ~85 µM

B5: KKTN motif peptide from yeast Wbp1 (as used in ITC) (peptide)
chain: CTFKKTN-OH
Kd [14]: 81 µM

B6: CTFKTKTN peptide (KxKxx motif, synthetic peptide used in crystallization) (peptide)
peptide: CTFKTKTN
notes: synthetic KxKxx peptide used in crystallization; Looks like the Wbp1-derived CTFKKTN with a threonine between the two lysines; source: synthetic peptide
binding result [15]: binds | binding result [16]: binds

B7: Emp47 KxKxx peptide without the -5 lysine (STKLL) (peptide)
chain: RQEIISTKLL-OH
Kd [10]: ~160 µM

Source: PMC3521961, “Molecular Basis for Recognition of Dilysine Trafficking Motifs by COPI” (Developmental Cell, 2012)
